Values quoted from earlier work in patent US11129865B2, “NEUPANEX®: neuroprotective, neuroregenerational, and neurogenesis supporting supplement combination” (priority 2017, dated 2021).

What was measured:
[1] = system: heme oxygenase-1; conditions: astrocytes
[2] = system: heat shock protein 60; conditions: astrocytes
[3] = system: IL-6 and IL-1 alpha and TNF-alpha
[4] = system: hippocampal cell culture; conditions: pretreatment, low to moderate concentration (10 nm-100 nm) in culture medium; voltage clamp and toxic NMDA insult
[5] = system: IL-10
[6] = rodents, increased dietary cholesterol
[7] = supplementary dietary cholesterol

In the case of `CC(=O)O[C@H](CC(=O)[O-])C[N+](C)(C)C` [acetyl-L-carnitine], the “levels of heme oxygenase-1” value [1] is given as “increased levels of heme oxygenase-1 were induced in a dose- and time-dependent manner” and the “heat shock protein 60 expression” value [2] is given as “up-regulation of heat shock protein 60”.
In the case of Vitamin D, the “reduction in inflammatory cytokines IL-6, IL-1 alpha and TNF-alpha, concentration dependence” value [3] is listed as “lower concentrations of vitamin D were more effective than the higher concentrations”, the “neuroprotective effect compared to controls” value [4] is listed as “dramatic neuroprotective effect” and the “Increases IL-10” value [5] is listed as “Vitamin D: Increases IL-10 (43%), Decreases IL-6 & TNF-Alpha,”.
In the case of `CC(C)CCC[C@@H](C)[C@H]1CC[C@H]2[C@@H]3CC=C4C[C@@H](O)CC[C@]4(C)[C@H]3CC[C@]12C` [cholesterol], the brain cholesterol [6] is listed as “dramatically increased brain cholesterol” and the “autistic behaviors of children with SLOS” value [7] is listed as “reduced or even eliminated”.
